Where a name gives a salt, the structure may show the parent alone.
| melting point | SMILES |
| --- | --- |
| 159 °C | O=C(O)C(F)(F)F.O=C(O)C[C@H](NC(=O)CCCc1csc(NC(=O)NCc2ccccc2)n1)C(=O)NCc1ccccc1 |
| 174 °C | O=C(O)CCNC(=O)CNC(=O)c1csc(NC(=O)NCc2ccccc2)n1 (as salt: hydrochloride) [Example 132, 3-[2-[[2-(3-benzyl-ureido)-thiazole-4-carbonyl]-amino]-acetylamino]-propionic acid] |
| 199 °C | O=C(O)CCCC(=O)CNC(=O)c1csc(NC(=O)NCc2ccccn2)n1 (as salt: hydrochloride) [Example 150, 5-oxo-6-{[2-(3-pyridin-2-ylmethyl-ureido)-thiazole-4-carbonyl]-amino}-hexanoic acid] |
| 111 to 114 °C | CC(C)(C)OC(=O)C[C@H](NC(=O)CNC(=O)c1csc(NC(=O)NCc2ccccc2)n1)C(=O)OC(C)(C)C (as salt: succinate) [Example 157, di-tert-butyl (S)-2-(2-{[2-(3-benzyl-ureido)-thiazole-4-carbonyl]-amino}-acetylamino)-succinate] |
| 193 °C | O=C(O)C[C@H](NC(=O)CNC(=O)c1csc(NC(=O)NCc2ccccc2)n1)C(=O)NCc1ccccc1 (as salt: trifluoroacetate) [Example 130, (S)-N-benzyl-3-[2-[[2-(3-benzyl-ureido)-thiazole-4-carbonyl]-amino]-acetylamino]-succinamic acid] |
| 93 to 98 °C | CC(C)[C@H](NC(=O)[C@H](CC(=O)O)NC(=O)CNC(=O)c1csc(NC(=O)NCc2ccccc2)n1)C(=O)O (as salt: trifluoroacetate) [Example 142, (S)-2-[(S)-2-(2-{[2-(3-benzyl-ureido)-thiazole-4-carbonyl]-amino}-acetylamino)-3-carboxy-propionylamino]-3-methyl-butyric acid] |
| 126 to 130 °C | O=C(O)C[C@H](NC(=O)CNC(=O)c1csc(NC(=O)NCc2ccccc2)n1)C(=O)N[C@H](C(=O)O)c1ccccc1 (as salt: trifluoroacetate) [Example 144, (S)-3-[2-[[2-(3-benzyl-ureido)-thiazole-4-carbonyl]-amino]-acetyl-amino]-N-[(S)-carboxy-phenyl-methyl)-succinamic acid] |
| 183 °C | O=C(O)C[C@H](NC(=O)CNC(=O)c1csc(NC(=O)NCc2ccccc2)n1)C(=O)O (as salt: trifluoroacetate) [Example 158, (S)-2-(2-{[2-(3-benzyl-ureido)-thiazole-4-carbonyl]-amino}-acetylamino)-succinic acid] |
| 135 °C | O=C(O)C[C@H](NC(=O)CNC(=O)c1csc(NC(=O)NCc2ccccc2)n1)C(=O)NCc1cccnc1 (as salt: trifluoroacetate) [Example 164, (S)-3-[2-[[2-(3-benzyl-ureido)-thiazole-4-carbonyl]-amino]-acetylamino]-N-pyridin-3-ylmethyl-succinamic acid] |
| 202 to 205 °C | N=C(N)Nc1nc(C(=O)NCC(=O)NC(CC(=O)O)c2ccccc2)cs1 (racemic) (as salt: hydrochloride) [Example 23, rac-3-[2-[(2-guanidino-thiazole-4-carbonyl)-amino]-acetylamino]-3-phenyl-propionic acid] |
| 126 to 129 °C | CCOC(=O)CC(CC(=O)CNC(=O)c1csc(NC(=O)NCc2ccccc2)n1)C(=O)OCC (racemic) (as salt: succinate) [Example 155, diethyl rac-2-[3-[[2-(3-benzyl-ureido)-thiazole-4-carbonyl]-amino]-2-oxo-propyl]-succinate] |
| 93 °C | CCOC(=O)CC(CCCNC(=O)c1csc(NC(=O)NCc2ccccc2)n1)c1ccccc1 (racemic) [Example 14, ethyl (RS)-6-{[2-(3-benzyl-ureido)-thiazole-4-carbonyl]-amino}-3-phenyl-hexanoate] |
| 235 °C | N=C(N)Nc1nc(C(=O)Nc2cccc(C(=O)NC(CC(=O)O)c3ccccc3)c2)cs1 (racemic) [Example 19, (RS)-3-{3-[(2-guanidino-thiazole-4-carbonyl)-amino]-benzoylamino}-3-phenyl-propionic acid] |
| 177 to 178 °C (dec.) | CCOC(=O)CC(NC(=O)CNC(=O)c1csc(NC(=N)N)n1)c1ccccc1 (racemic) [Example 22, ethyl rac-3-[2-[(2-guanidino-thiazole-4-carbonyl)-amino]-acetylamino]-3-phenyl-propionate] |
| 105 to 107 °C (dec.) | N=C(N)Nc1nc(C(=O)NCCC(=O)NC(CC(=O)O)c2ccccc2)cs1 (racemic) [Example 25, rac-3-[3-[(2-guanidino-thiazole-4-carbonyl)-amino]-propionylamino]-3-phenyl-propionic acid] |

Continued, compound first:

| SMILES | melting point |
| --- | --- |
| Cl.Cl.O=C(O)CC(NC(=O)CNC(=O)c1csc(N=C2NCCN2)n1)c1cccnc1 (centres unmarked) | 170 to 172 °C |
| Cc1nc(NC(=N)N)sc1C(=O)NCCC(=O)NCCC(=O)O.Cl.Cl | 170 °C |
| CC(=O)O.Cc1nc(N=C2NCCCN2)sc1C(=O)NCCCCC(CC(=O)O)c1ccccc1.Cl (racemic) | 60 to 63 °C |
| CCc1nc(NC(=N)N)sc1-c1cccc(NC(=O)CC(CC(=O)O)c2ccccc2)c1 (racemic) (as salt: salt) [Example 91, rac-4-[3-(4-ethyl-2-guanidino-thiazol-5-yl)-phenylcarbamoyl]-3-phenyl-butyric acid] | 186 to 188 °C |
| CCOC(=O)CC(NC(=O)c1cccc(NC(=O)c2sc(NC(=N)N)nc2C)c1)c1ccccc1 (racemic) [Example 10, ethyl rac-3-[3-[(2-guanidino-4-methyl-thiazole-5-carbonyl)-amino]-benzoylamino]-3-phenyl-propionate] | 177 °C |
| N=C(N)Nc1nc(C(=O)NCCCC(CC(=O)O)c2ccccc2)cs1 (racemic) [Example 17, (RS)-6-[(2-guanidino-thiazole-4-carbonyl)-amino]-3-phenyl-hexanoic acid] | 230 °C |
| CCOC(=O)CC(NC(=O)c1cccc(NC(=O)c2csc(NC(=N)N)n2)c1)c1ccccc1 (racemic) [Example 18, ethyl (RS)-3-[3-[(2-guanidino-thiazole-4-carbonyl)-amino]-benzoylamino]-3-phenyl-propionate] | 117 °C |
| CCOC(=O)CC(NC(=O)CCNC(=O)c1csc(NC(=N)N)n1)c1ccccc1 (racemic) [Example 24, ethyl rac-3-[3-[(2-guanidino-thiazole-4-carbonyl)-amino]-propionylamino]-3-phenyl-propionate] | 85 to 87 °C |
| CCOC(=O)CC(NC(=O)CCNC(=O)c1sc(NC(=N)N)nc1C)c1ccccc1 (racemic) [Example 26, ethyl rac-3-[3-[(2-guanidino-4-methyl-thiazole-5-carbonyl)-amino]-propionylamino]-3-phenyl-propionate] | 106 to 107 °C |
| CCOC(=O)CC(NC(=O)c1cccc(NC(=O)c2cnc(NC(=N)N)s2)c1)c1ccccc1 (racemic) [Example 72, ethyl (RS)-3-{3-[(2-guanidino-thiazole-5-carbonyl)-amino]-benzoylamino}-3-phenyl-propionate] | 149 °C |
| N=C(N)Nc1ncc(C(=O)Nc2cccc(C(=O)NC(CC(=O)O)c3ccccc3)c2)s1 (racemic) [Example 73, (RS)-3-[3-[(2-guanidino-thiazole-5-carbonyl)-amino]-benzoylamino]-3-phenyl-propionic acid] | 196 °C |
